Data reported in US11180461B2, “Triazoles as Kv3 inhibitors” (AUTIFONY THERAPEUTICS LIMITED, priority 2012, dated 2021).

Target: T1, human Kv3.3 channels (hKv3.3) (Homo sapiens, UniProt Q14003)
T1 construct: expressed in transfected cells
T1 sequence (Q14003 1-757): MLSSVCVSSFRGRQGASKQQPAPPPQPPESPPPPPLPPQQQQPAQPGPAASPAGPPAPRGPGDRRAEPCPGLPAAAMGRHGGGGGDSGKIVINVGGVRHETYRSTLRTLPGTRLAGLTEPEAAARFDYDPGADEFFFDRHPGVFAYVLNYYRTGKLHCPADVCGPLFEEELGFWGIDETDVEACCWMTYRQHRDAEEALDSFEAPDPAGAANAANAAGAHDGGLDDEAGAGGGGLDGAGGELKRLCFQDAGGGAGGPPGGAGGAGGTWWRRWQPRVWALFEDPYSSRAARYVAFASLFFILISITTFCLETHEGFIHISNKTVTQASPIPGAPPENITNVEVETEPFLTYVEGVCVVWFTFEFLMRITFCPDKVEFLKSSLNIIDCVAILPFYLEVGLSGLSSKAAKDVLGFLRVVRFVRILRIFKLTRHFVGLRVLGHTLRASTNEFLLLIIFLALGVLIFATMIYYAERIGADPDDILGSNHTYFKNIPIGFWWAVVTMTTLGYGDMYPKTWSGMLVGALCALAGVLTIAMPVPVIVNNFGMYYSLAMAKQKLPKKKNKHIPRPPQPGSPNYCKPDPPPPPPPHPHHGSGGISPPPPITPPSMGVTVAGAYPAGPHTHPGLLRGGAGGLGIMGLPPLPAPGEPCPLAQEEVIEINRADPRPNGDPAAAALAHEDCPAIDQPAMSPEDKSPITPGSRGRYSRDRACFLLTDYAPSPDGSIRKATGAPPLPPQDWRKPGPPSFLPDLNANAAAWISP
Test: hKv3.3 recombinant cell assay, IonWorks Quattro planar array electrophysiology
Format: cell-based
Conditions: 12.5 micromolar; mean, n=2
Excerpt: The ability of the compounds of the invention to modulate the voltage-gated potassium channel subtypes Kv3.2/3.1 may be determined using the following assay. The assay may also be used to determine the ability of compounds of the invention to modulate the voltage-gated potassium channel Kv3.3. Analogous methods may be used to investigate the ability of the compounds of the invention to modulate other channel subtypes.
To assess compound effects on human Kv3.3 channels (hKv3.3), a stable cell line expressing human Kv3.3 channels was created by transfecting Chinese Hamster Ovary (CHO)—K1 cells with a pBacMire_KCNC-3 vector. Cells were cultured in DMEM/F12 (Gibco) supplemented with 10% Foetal Bovine Serum (Gibco), 1× non-essential amino acids (Invitrogen) and geneticin (G418) 400 microg/mL. Cells were grown and maintained at 37° C. in a humidified environment containing 5% CO2 in air. […]
Experiments were conducted at room temperature using IonWorks Quattro™ planar array electrophysiology technology (Molecular Devices Corp.) with PatchPlate™ PPC. […] Planar electrode hole resistances (Rp) were determined by applying a 10 mV voltage step across each well. […] Test pulses protocol may be performed in the absence (pre-read) and presence (post-read) of the test compound. Pre- and post-reads may be separated by the compound addition followed by a 3 minute incubation. […]

increase in human Kv3.3 peak current at 0 mV: 75%
Structure (SMILES): Cc1ccc(Oc2ccc(-n3c(C)n[nH]c3=O)cn2)c2c1OCC21CC1 [Example 14, 5-methyl-4-{6-[(7-methylspiro[1-benzofuran-3,1′-cyclopropan]-4-yl)oxy]pyridin-3-yl}-2,4-dihydro-3H-1,2,4-triazol-3-one]
